Assay results as given in patent US20140378454A1, “NOVEL METHODS” (XSPRAY MICROPARTICLES AB, priority 2012, published 2014).
Where a name gives a salt, the structure may show the parent alone.

Assay: Dissolution measurement assay (apparent solubility) in FaSSIF, pH 6.5
Assay type: physicochemical
Design: AUC/90 min / AUC/80 min: concentration or dose not given beside the values
Settings: for AUC/80 min: during 80 min dissolution
[1] = concentration of nilotinib HCl, FaSSIF solution (pH 6.5), 5 minutes dissolution, HCl
[2] = concentration of nilotinib HCl, FaSSIF solution (pH 6.5), 30 minutes dissolution, HCl
[3] = concentration of nilotinib HCl, FaSSIF solution (pH 6.5), 90 minutes dissolution, HCl
[4] = nilotinib HCl, FaSSIF solution (pH 6.5), 30 minutes dissolution, HCl
[5] = nilotinib HCl, FaSSIF solution (pH 6.5), Area Under the Curve during 90 minutes dissolution, HCl

## COc1cc2ncnc(Nc3ccc(F)c(Cl)c3)c2cc1OCCCN1CCOCC1 [Exp 131, gefitinib]
Concentration of gefitinib after 3 min dissolution, FaSSIF pH 6.5
  Conc (mg/L) 3 min: 121.8 mg/L
Concentration of gefitinib after 40 min dissolution, FaSSIF pH 6.5
  Conc (mg/L) 40 min: 153.1 mg/L
Concentration of gefitinib after 80 min dissolution, FaSSIF pH 6.5
  Conc (mg/L) 80 min: 148.1 mg/L
gefitinib, 40 min dissolution, FaSSIF pH 6.5
  % solubilized 40 min.: 15.3%
gefitinib, FaSSIF pH 6.5
  AUC/80 min: 5967 Mg/min/L

## Cc1cn(-c2cc(NC(=O)c3ccc(C)c(Nc4nccc(-c5cccnc5)n4)c3)cc(C(F)(F)F)c2)cn1 [Exp 4, Nilotinib Base]
Concentration of nilotinib HCl, FaSSIF solution (pH 6.5), 5 minutes dissolution
  Conc (mg/L) 5 min: 0.6 mg/L
Concentration of nilotinib HCl, FaSSIF solution (pH 6.5), 30 minutes dissolution
  Conc (mg/L) 30 min: 0.5 mg/L
Concentration of nilotinib HCl, FaSSIF solution (pH 6.5), 90 minutes dissolution
  Conc (mg/L) 90 min: 0.2 mg/L
Nilotinib HCl, FaSSIF solution (pH 6.5), 30 minutes dissolution
  % solubilized 30 min.: 0.50%
Nilotinib HCl, FaSSIF solution (pH 6.5), Area Under the Curve during 90 minutes dissolution
  AUC/90 min Mg/min/L: 36.5 Mg/min/L

## Cc1ccc(Nc2nccc(N(C)c3ccc4c(C)n(C)nc4c3)n2)cc1S(N)(=O)=O [Exp 84, pazopanib]
5 min, pH 6.5
  Conc (mg/L) 5 min: 46.2 mg/L
30 min, pH 6.5
  % solubilized 30 min.: 2.4%
  Conc (mg/L) 30 min: 24.4 mg/L
90 min, pH 6.5
  Conc (mg/L) 90 min: 15.0 mg/L

## C#Cc1cccc(Nc2ncnc3cc(OCCOC)c(OCCOC)cc23)c1 [Exp 58, erlotinib HCl]
5 min, pH 6.5
  Conc (mg/L) 5 min: 28.9 mg/L
30 min, pH 6.5
  Conc (mg/L) 30 min: 6.25 mg/L
90 min, pH 6.5
  Conc (mg/L) 90 min: 4.6 mg/L
Erlotinib HCl, FaSSIF pH 6.5, 30 min dissolution
  % solubilized 30 min.: 0.6%
Erlotinib HCl, FaSSIF pH 6.5, during 90 min dissolution
  AUC/90 min Mg/min/L: 837 Mg/min/L

## C[C@@H](Oc1cc(-c2cnn(C3CCNCC3)c2)cnc1N)c1c(Cl)ccc(F)c1Cl [Exp 150, crizotinib]
3 min, pH 6.5
  Conc (mg/L) 3 min: 89.3 mg/L
40 min, pH 6.5
  % solubilized 40 min.: 22.7%
  Conc (mg/L) 40 min: 226.5 mg/L
80 min, pH 6.5
  Conc (mg/L) 80 min: 295.6 mg/L

## Cc1cn(-c2cc(NC(=O)c3ccc(C)c(Nc4nccc(-c5cccnc5)n4)c3)cc(C(F)(F)F)c2)cn1 [Exp 1, Nilotinib HCl]
[1]
  Conc (mg/L) 5 min: 0.1 mg/L
[2]
  Conc (mg/L) 30 min: 0.2 mg/L
[3]
  Conc (mg/L) 90 min: 0.1 mg/L
[4]
  % solubilized 30 min.: 0.20%
[5]
  AUC/90 min Mg/min/L: 13.0 Mg/min/L

## Cc1nc(Nc2ncc(C(=O)Nc3c(C)cccc3Cl)s2)cc(N2CCN(CCO)CC2)n1 [Exp 138, dasatinib]
3 min, pH 6.5
  Conc (mg/L) 3 min: 34.5 mg/L
40 min, pH 6.5
  Conc (mg/L) 40 min: 59.7 mg/L
80 min, pH 6.5
  Conc (mg/L) 80 min: 63.5 mg/L
dasatinib, 40 min dissolution, FaSSIF pH 6.5
  % solubilized 40 min.: 6.0%
dasatinib, FaSSIF pH 6.5
  AUC/80 min: 2396 Mg/min/L

## CNC(=O)c1cc(Oc2ccc(NC(=O)Nc3ccc(Cl)c(C(F)(F)F)c3)cc2)ccn1 [Exp 142, sorafenib tosylate]
3 min, pH 6.5
  Conc (mg/L) 3 min: 59.1 mg/L
40 min, pH 6.5
  % solubilized 40 min.: 34.4%
  Conc (mg/L) 40 min: 343.5 mg/L
80 min, pH 6.5
  Conc (mg/L) 80 min: 311.5 mg/L

## Cc1cn(-c2cc(NC(=O)c3ccc(C)c(Nc4nccc(-c5cccnc5)n4)c3)cc(C(F)(F)F)c2)cn1 [Exp 3, Nilotinib HCl]
[1]
  Conc (mg/L) 5 min: 0.2 mg/L
[2]
  Conc (mg/L) 30 min: 0.3 mg/L
[3]
  Conc (mg/L) 90 min: 0.2 mg/L
[4]
  % solubilized 30 min.: 0.03%
[5]
  AUC/90 min Mg/min/L: 21.8 Mg/min/L

## CCCS(=O)(=O)Nc1ccc(F)c(C(=O)c2c[nH]c3ncc(-c4ccc(Cl)cc4)cc23)c1F [Exp 164, vemurafenib]
3 min, pH 6.5
  Conc (mg/L) 3 min: 0.3 mg/L
40 min, pH 6.5
  % solubilized 40 min.: 0.1%
  Conc (mg/L) 40 min: 0.3 mg/L
80 min, pH 6.5
  Conc (mg/L) 80 min: 0.4 mg/L

## Cc1cn(-c2cc(NC(=O)c3ccc(C)c(Nc4nccc(-c5cccnc5)n4)c3)cc(C(F)(F)F)c2)cn1 [Exp 2, Nilotinib HCl]
[1]
  Conc (mg/L) 5 min: 0.2 mg/L
[2]
  Conc (mg/L) 30 min: 0.2 mg/L
[3]
  Conc (mg/L) 90 min: 0.2 mg/L
[4]
  % solubilized 30 min.: 0.04%
[5]
  AUC/90 min Mg/min/L: 23.5 Mg/min/L

## CS(=O)(=O)CCNCc1ccc(-c2ccc3ncnc(Nc4ccc(OCc5cccc(F)c5)c(Cl)c4)c3c2)o1 [Exp 110, lapatinib base]
Concentration of lapatinib after 5 min dissolution, FaSSIF pH 6.5
  Conc (mg/L) 5 min: 2.9 mg/L
Concentration of lapatinib after 30 min dissolution, FaSSIF pH 6.5
  Conc (mg/L) 30 min: 6.0 mg/L
Concentration of lapatinib after 90 min dissolution, FaSSIF pH 6.5
  Conc (mg/L) 90 min: 6.5 mg/L
lapatinib, 30 min dissolution, FaSSIF pH 6.5
  % solubilized 30 min.: 0.3%
lapatinib, during 90 min dissolution, FaSSIF pH 6.5
  AUC/90 min: 494 Mg/min/L

## CNC(=O)c1ccccc1Sc1ccc2c(/C=C/c3ccccn3)n[nH]c2c1 [Exp 157, axitinib]
3 min, pH 6.5
  Conc (mg/L) 3 min: 0.6 mg/L
40 min, pH 6.5
  Conc (mg/L) 40 min: 0.6 mg/L
80 min, pH 6.5
  Conc (mg/L) 80 min: 0.6 mg/L
axitinib, 40 min dissolution, FaSSIF pH 6.5
  % solubilized 40 min.: 0.1%
axitinib, FaSSIF pH 6.5
  AUC/80 min: 47 Mg/min/L
